# Measurements published in US11840547B1, “Nano-sized 4-Bromo-2-[(9H-purin-6-ylimino)-methyl]-phenol imine Pd(II) complex for superior pharmaceutical applications” (KING FAISAL UNIVERSITY, priority 2023, dated 2023).
# Read-outs that look alike come from different tables or passages of the source.
# What was measured:
# Aspergillus flavus fungi = assay: Antifungal activity against Aspergillus flavus (inhibition zone, MIC); type: cell-based; settings: in vitro
# E. coli bacteria = assay: Antimicrobial activity against E. coli (inhibition zone, MIC); type: cell-based; settings: in vitro
# breast cancer cell line [1] = assay: Antioxidant activity; type: cell-based; settings: printed as against a breast cancer cell line
# breast cancer cell line [2] = assay: In vitro anti-cancer activity against breast cancer cell line; type: cell-based, human
# [3] = listed as prepared nano complex
compound,measurement,setting,value
"OC(Cn1cncn1)(Cn1cncn1)c1ccc(F)cc1F [Fluconazol, reference compound]",inhibition zone,Aspergillus flavus fungi,24 mm
same,MIC,Aspergillus flavus fungi; read-out: MIC,2 µg/mL
"CC1COc2c(N3CCN(C)CC3)c(F)cc3c(=O)c(C(=O)O)cn1c23 (stereo not shown) [Ofloxacin, reference compound]",MIC,"E. coli bacteria; Escherichia coli, read-out: MIC",2.5 µg/mL
same,inhibition zone,E. coli bacteria,35 mm
"O=C1O[C@H]([C@@H](O)CO)C(O)=C1O [1-ascorbic acid, reference compound]",IC50 (antioxidant activity),breast cancer cell line [1],45.7 µg/mL
"CC[C@]1(O)C[C@@H]2CN(CCc3c([nH]c4ccccc34)[C@@](C(=O)OC)(c3cc4c(cc3OC)N(C)[C@H]3[C@@](O)(C(=O)OC)[C@H](OC(C)=O)[C@]5(CC)C=CCN6CC[C@]43[C@@H]65)C2)C1 [vinblastine, reference compound]",IC50,"breast cancer cell line [2]; Homo sapiens, read-out: IC50 (anticancer activity)",4.7 µg/mL
4-Bromo-2-[(9H-purin-6-ylimino)-methyl]-phenol imine Pd(II) complex [prepared complex],MIC,E. coli bacteria; [3],1.00 µg/mL
same,inhibition zone,E. coli bacteria; [3],40 mm
same,MIC,E. coli bacteria; listed as present complex,about 1.0 μg/ml
same,inhibition zone,E. coli bacteria; listed as present complex,about 40 mm
same,IC50 (anticancer activity),breast cancer cell line [2],2.2 µg/mL
same,IC50 (antioxidant activity),breast cancer cell line [1],7.5 µg/mL
same,MIC,Aspergillus flavus fungi,1.50 µg/mL
same,inhibition zone,Aspergillus flavus fungi,30 mm
same,MIC,Aspergillus flavus fungi; listed as present complex,about 1.50 μg/ml
same,inhibition zone,Aspergillus flavus fungi; listed as present complex,about 30 mm
